Experimental data as given in patent US7939320B2, “Astaxanthine biosynthesis in eukaryotes” (Peter und Traudl Engelhorn-Stiftung zur Forderung der …, priority 2005, dated 2011).

What was measured:
H. pluvialis WT cells = assay: Growth of H. pluvialis WT cells on OHA plates containing norflurazon; format: cell-based, Haematococcus pluvialis; conditions: norflurazon 0.7 μM
[1] = test system: H. pluvialis phytoene desaturase Leu504Arg mutants; assay: Resistance to norflurazon of Leu504Arg phytoene desaturase mutants compared with wild type; format: cell-based, Haematococcus pluvialis; conditions: mutants with leucine to arginine substitution at position 504 of PDS
Text: The amino acid substitution according to the invention from leucine to arginine at position 504 of the H. pluvialis PDS protein corresponds to the Leu437Arg substitution in Synechococcus PCC7942 (FIG. 2). For this purpose, the Leu codon “CTG” is replaced by the Arg codon “CGC” by directed mutagenesis. This mutation imparts, to the mutants, the highest known resistance factor to norflurazon. The resistance which has been conferred imparts, to the mutants according to the invention, a resistance to norflurazon which is up to 70-fold higher in comparison with the wild type. In accordance with the invention, norflurazon concentrations of […] are used as selection substance.
A portion of the phytoene desaturase 6.1 kilobases in size was isolated from a genomic DNA library of H. pluvialis and subcloned into the multiple cloning site (MCS) of the pBluescriptSK vector (stratagene) via the restriction cleavage sites XbaI and XhoI. A nucleotide substitution from CTG to CGC was carried out via directed mutagenesis with the primers PDS-Qmut-plu2 CCAAGCAGAAGTACCGCGCCTCCATGGAGGG (SEQ ID NO: 8)and PDS-Qmut-min2 CCCTCCATGGAGGCGCGGTACTTCTGCTTGG (SEQ ID NO: 9); the plasmid was named pPDS-Q2. This nucleotide substitution led to an amino acid substitution from leucine to arginine in codon 504 (FIG. 2), and confers to mutants a resistance to norflurazon.

CNc1cnn(-c2cccc(C(F)(F)F)c2)c(=O)c1Cl [norflurazon]
growth of the WT cells (H. pluvialis WT cells): greatly inhibited | resistance to norflurazon, fold higher in comparison with the wild type [1]: up to 70 fold
